Reference: publication PMC6277767, “Broad and Region-Specific Impacts of the Synthetic Cannabinoid CP 55,940 in Adolescent and Adult Female Mouse Brains” (Frontiers in Molecular Neuroscience, 2018)

System: CD1 female mouse brain lipidome
Assay: Brain-region lipid levels (HPLC/MS/MS lipidomics) 2 h after single i.p. 3 mg/kg CP 55,940 vs vehicle
Assay type: in vivo
Design: N-arachidonoyl phenylalanine level, Mean / N-stearoyl tryptophan level, Mean / N-stearoyl proline level, Mean / N-stearoyl leucine level, Mean / N-stearoyl phenylalanine level, Mean / N-stearoyl serine level, Mean / N-stearoyl methionine level, Mean: unit: moles per gram
Settings: hippocampus, adult, 3 mg/kg CP 55,940
Experimental: The Bloomington Institutional Animal Care and Use Committee of Indiana University reviewed and approved the animal procedures. Female mice from the CD1 strain were utilized to match our study examining THC’s effects on the brain lipidome ([Leishman et al., 2018]). Mice were given a single i.p. injection of either 3 mg/kg CP or 1:1:18 cremophor:ethanol:saline vehicle (please refer to the section “3 mg/kg CP Is Relevant for Synthetic Cannabinoid Abuse and Has Stronger Effects on the Female Mouse Brain Lipidome During Adolescence” for a justification of dose and use of female mice). Three different age groups were given injections: PND 35 and PND 50 adolescents, and adult mice (PND 113). At least eight mice in each age group received CP and at least eight received vehicle. Matching the THC study time course ([Leishman et al., 2018]), mice were sacrificed via rapid decapitation 2 h after injection. Brains were immediately removed and flash-frozen in liquid nitrogen, and then stored at -80°C until dissections were performed. Brains were dissected on an ice-cold dissection plate into the following regions: STR, HIPP, CER, THAL, CTX, HYP, MID, and STEM. These abbreviations for these brain areas will be used exclusively when discussing the results generated by these specific dissections. Each dissected area was immediately placed in liquid nitrogen and then stored at -80°C until used for lipid extraction.
Tissue extracts were performed as previously described ([Bradshaw et al., 2006]; [Stuart et al., 2013]; [Raboune et al., 2014]; [Leishman et al., 2016a],[b], [2017], [2018]). First, samples were shock frozen in liquid nitrogen, weighed, and transferred to a centrifuge tube. The mass of the largest sample was multiplied by 50 to determine how many milliliters of HPLC-grade methanol (Fisher, Fair Lawn, NJ, United States) to add. Then, samples were spiked with 500 pmol deuterium-labeled NAGly (d8NAGly; Cayman Chemical, Ann Arbor, MI, United States). Samples were placed on ice in darkness for 2 h then individually homogenized and centrifuged at 19,000 × g for 20 min at 20°C. Supernatants were diluted with HPLC water (purified in house) to make a solution of 75% water, 25% supernatant. Lipids were partially purified on C18 solid phase extraction columns (Agilent, Palo Alto, CA, United States). A series of four elutions with 1.5 mL of 60%, 75%, 85%, and 100% methanol were collected ([Stuart et al., 2013]; [Leishman et al., 2016a],[b], [2018]).
As previously described ([Bradshaw et al., 2006]; [Tan et al., 2006]; [Smoum et al., 2010]; [Stuart et al., 2013]; [Tortoriello et al., 2013]; [Raboune et al., 2014]; [Leishman et al., 2016a],[b], [2017], [2018]), samples were analyzed using an Applied Biosystems API 3000 triple quadrupole mass spectrometer with electrospray ionization (Foster City, CA, United States). Using an Agilent XDB-C18 reversed phase analytical column and optimized mobile phase gradients, 20 μL from each elution were chromatographed. Two Shimadzu 10ADvp pumps (Columbia, MD, United States) provided the pressure for gradient elution. Mobile phase A: 20% methanol, 80% water (v/v) and 1 mM ammonium acetate (Sigma, St. Louis, MO, United States). Mobile phase B: 100% methanol, 1 mM ammonium acetate. Every method run began with 0% mobile phase B, reached 100% mobile phase B flowing at 0.2 mL/min, and gradually returned to 0% mobile phase B.
This screening library will be referred to as the lipidome when discussing data from this study. HPLC/MS/MS data were analyzed using Analyst software (Applied Biosystems) ([Bradshaw et al., 2006]; [Tan et al., 2006]; [Stuart et al., 2013]; [Tortoriello et al., 2013]; [Raboune et al., 2014]; [Leishman et al., 2016a],[b], [2017], [2018]). Chromatograms (Supplementary Figure 3) were generated by determining the retention time of analytes from the analytical column with a [M-1] or [M+1] parent peak and a fragmentation peak corresponding to the programmed values. […]

Question: How did the “6-ketoPGF1α level, Mean” value turn out when `CCCCCCC(C)(C)c1ccc([C@@H]2C[C@H](O)CC[C@H]2CCCO)c(O)c1` [CP 55,940] was run?
Answer: 2.42E-11

Question: What about the “11-OH-THC level, Mean” value of the same molecule?
Answer: BDL

Question: What about the “11-nor-9-carboxyTHC level, Mean” value of the same molecule?
Answer: BDL

Question: And the “Arachidonic acid level, Mean” value?
Answer: 1.89E-09

Question: What about the “Cannabidiol level, Mean” value of the same molecule?
Answer: BDL

Question: What about the “Linoleic acid level, Mean” value of the same molecule?
Answer: 7.37E-10

Question: What about the “N- stearoyl valine level, Mean” value of the same molecule?
Answer: 3.95E-14

Question: And the “N-arachidonoyl GABA level, Mean” value?
Answer: 2.86E-11

Question: What about the “N-arachidonoyl GABA: Direction (relative to Veh)” value of the same molecule?
Answer: ↓

Question: And the “N-arachidonoyl GABA: Magnitude (x Veh level)” value?
Answer: 0.84 x Veh level

Question: What about the “N-arachidonoyl alanine level, Mean” value of the same molecule?
Answer: 3.66E-12

Question: And the “N-arachidonoyl alanine: Direction (relative to Veh)” value?
Answer: ↓

Question: And the “N-arachidonoyl alanine: Magnitude (x Veh level)” value?
Answer: 0.76 x Veh level

Question: What about the “N-arachidonoyl dopamine level, Mean” value of the same molecule?
Answer: BDL

Question: And the “N-arachidonoyl ethanolamine level, Mean” value?
Answer: 3.15E-11

Question: And the “N-arachidonoyl glycine level, Mean” value?
Answer: 2.03E-12

Question: And the “N-arachidonoyl glycine: Direction (relative to Veh)” value?
Answer: ↓

Question: And the “N-arachidonoyl glycine: Magnitude (x Veh level)” value?
Answer: 0.72 x Veh level

Question: What about the “N-arachidonoyl methionine level, Mean” value of the same molecule?
Answer: PISSR

Question: What about the “N-arachidonoyl phenylalanine level, Mean” value of the same molecule?
Answer: 1.12E-13

Question: And the “N-arachidonoyl phenylalanine: Direction (relative to Veh)” value?
Answer: ↓

Question: And the “N-arachidonoyl phenylalanine: Magnitude (x Veh level)” value?
Answer: 0.60 x Veh level

Question: And the “N-arachidonoyl proline level, Mean” value?
Answer: BDL

Question: And the “N-arachidonoyl serine level, Mean” value?
Answer: PISSR

Question: What about the “N-arachidonoyl taurine level, Mean” value of the same molecule?
Answer: 2.3E-10

Question: What about the “N-arachidonoyl tryptophan level, Mean” value of the same molecule?
Answer: BDL

Question: What about the “N-arachidonoyl tyrosine level, Mean” value of the same molecule?
Answer: PISSR

Question: And the “N-docosahexaenoyl GABA level, Mean” value?
Answer: 7.15E-12

Question: What about the “N-docosahexaenoyl GABA: Direction (relative to Veh)” value of the same molecule?
Answer: ↓

Question: And the “N-docosahexaenoyl GABA: Magnitude (x Veh level)” value?
Answer: 0.84 x Veh level

Question: And the “N-docosahexaenoyl alanine level, Mean” value?
Answer: PISSR

Question: And the “N-docosahexaenoyl ethanolamine level, Mean” value?
Answer: 2.18E-11

Question: What about the “N-docosahexaenoyl glycine level, Mean” value of the same molecule?
Answer: 1.21E-13

Question: What about the “N-docosahexaenoyl leucine level, Mean” value of the same molecule?
Answer: PISSR

Question: And the “N-docosahexaenoyl methionine level, Mean” value?
Answer: BDL

Question: What about the “N-docosahexaenoyl phenylalanine level, Mean” value of the same molecule?
Answer: PISSR

Question: And the “N-docosahexaenoyl proline level, Mean” value?
Answer: BDL

Question: What about the “N-docosahexaenoyl serine level, Mean” value of the same molecule?
Answer: PISSR

Question: What about the “N-docosahexaenoyl tryptophan level, Mean” value of the same molecule?
Answer: BDL

Question: And the “N-docosahexaenoyl tyrosine level, Mean” value?
Answer: PISSR

Question: And the “N-docosahexaenoyl valine level, Mean” value?
Answer: PISSR

Question: And the “N-linoleoyl GABA level, Mean” value?
Answer: PISSR

Question: What about the “N-linoleoyl alanine level, Mean” value of the same molecule?
Answer: 3.37E-13

Question: What about the “N-linoleoyl ethanolamine level, Mean” value of the same molecule?
Answer: 2.58E-11

Question: What about the “N-linoleoyl glycine level, Mean” value of the same molecule?
Answer: 1.16E-13

Question: What about the “N-linoleoyl leucine level, Mean” value of the same molecule?
Answer: PISSR

Question: What about the “N-linoleoyl methionine level, Mean” value of the same molecule?
Answer: BDL

Question: And the “N-linoleoyl phenylalanine level, Mean” value?
Answer: PISSR

Question: What about the “N-linoleoyl proline level, Mean” value of the same molecule?
Answer: BDL

Question: What about the “N-linoleoyl serine level, Mean” value of the same molecule?
Answer: 7.17E-11

Question: What about the “N-linoleoyl tryptophan level, Mean” value of the same molecule?
Answer: BDL

Question: And the “N-linoleoyl tyrosine level, Mean” value?
Answer: PISSR

Question: What about the “N-linoleoyl valine level, Mean” value of the same molecule?
Answer: PISSR

Question: What about the “N-nervonoyl valine level, Mean” value of the same molecule?
Answer: BDL

Question: And the “N-oleoyl GABA level, Mean” value?
Answer: 1.55E-11

Question: What about the “N-oleoyl GABA: Direction (relative to Veh)” value of the same molecule?
Answer: ↓

Question: What about the “N-oleoyl GABA: Magnitude (x Veh level)” value of the same molecule?
Answer: 0.88 x Veh level

Question: And the “N-oleoyl alanine level, Mean” value?
Answer: 3.73E-12

Question: What about the “N-oleoyl dopamine level, Mean” value of the same molecule?
Answer: BDL

Question: What about the “N-oleoyl ethanolamine level, Mean” value of the same molecule?
Answer: 1.06E-10

Question: And the “N-oleoyl glycine level, Mean” value?
Answer: 5.21E-13

Question: What about the “N-oleoyl leucine level, Mean” value of the same molecule?
Answer: 1.44E-12

Question: And the “N-oleoyl methionine level, Mean” value?
Answer: PISSR

Question: And the “N-oleoyl phenylalanine level, Mean” value?
Answer: 3.98E-13

Question: What about the “N-oleoyl phenylalanine: Direction (relative to Veh)” value of the same molecule?
Answer: ↓

Question: And the “N-oleoyl phenylalanine: Magnitude (x Veh level)” value?
Answer: 0.70 x Veh level

Question: What about the “N-oleoyl proline level, Mean” value of the same molecule?
Answer: BDL

Question: What about the “N-oleoyl serine level, Mean” value of the same molecule?
Answer: 3.49E-10

Question: And the “N-oleoyl tryptophan level, Mean” value?
Answer: BDL

Question: And the “N-oleoyl tyrosine level, Mean” value?
Answer: 4.1E-13

Question: What about the “N-oleoyl valine level, Mean” value of the same molecule?
Answer: PISSR

Question: What about the “N-palmitoyl GABA level, Mean” value of the same molecule?
Answer: 2.14E-11

Question: What about the “N-palmitoyl alanine level, Mean” value of the same molecule?
Answer: 3.64E-12

Question: What about the “N-palmitoyl ethanolamine level, Mean” value of the same molecule?
Answer: 4.41E-11

Question: What about the “N-palmitoyl glycine level, Mean” value of the same molecule?
Answer: 1.22E-12

Question: And the “N-palmitoyl leucine level, Mean” value?
Answer: 2.6E-12

Question: What about the “N-palmitoyl methionine level, Mean” value of the same molecule?
Answer: 1.73E-12

Question: And the “N-palmitoyl phenylalanine level, Mean” value?
Answer: 4.39E-13

Question: What about the “N-palmitoyl proline level, Mean” value of the same molecule?
Answer: BDL

Question: And the “N-palmitoyl serine level, Mean” value?
Answer: 1.33E-11

Question: What about the “N-palmitoyl tryptophan level, Mean” value of the same molecule?
Answer: BDL

Question: And the “N-palmitoyl tyrosine level, Mean” value?
Answer: 9.98E-13

Question: What about the “N-palmitoyl valine level, Mean” value of the same molecule?
Answer: 1.27E-13

Question: And the “N-stearoyl GABA level, Mean” value?
Answer: 1.57E-11

Question: And the “N-stearoyl alanine level, Mean” value?
Answer: 2.38E-12

Question: What about the “N-stearoyl ethanolamine level, Mean” value of the same molecule?
Answer: 1.7E-11

Question: And the “N-stearoyl glycine level, Mean” value?
Answer: 2.12E-12

Question: What about the “N-stearoyl leucine level, Mean” value of the same molecule?
Answer: 2.18E-12

Question: What about the “N-stearoyl phenylalanine level, Mean” value of the same molecule?
Answer: 3.31E-13

Question: What about the “N-stearoyl proline level, Mean” value of the same molecule?
Answer: BDL

Question: And the “N-stearoyl serine level, Mean” value?
Answer: 2.78E-11

Question: And the “N-stearoyl serine: Direction (relative to Veh)” value?
Answer: ↓

Question: And the “N-stearoyl serine: Magnitude (x Veh level)” value?
Answer: 0.85 x Veh level

Question: And the “N-stearoyl tryptophan level, Mean” value?
Answer: BDL

Question: What about the “N-stearoyl tyrosine level, Mean” value of the same molecule?
Answer: 1.97E-13

Question: What about the “Oleic acid level, Mean” value of the same molecule?
Answer: 1.43E-09

Question: What about the “PGE2: Direction (relative to Veh)” value of the same molecule?
Answer: ↑

Question: What about the “PGE2: Magnitude (x Veh level)” value of the same molecule?
Answer: 1.18 x Veh level

Question: And the “PGE2 level, Mean” value?
Answer: 3.37E-10

Question: And the “PGF2α: Direction (relative to Veh)” value?
Answer: ↑

Question: And the “PGF2α: Magnitude (x Veh level)” value?
Answer: 1.30 x Veh level

Question: And the “PhosphoLEA level, Mean” value?
Answer: 1.8E-11
